Laboratory results reported in patent publication US10597388B2, “Pyridazinone herbicides” (FMC CORPORATION, priority 2014, dated 2020).

Legend:
Experiment in all cases: Test C greenhouse herbicide test, pre- and postemergence
Format in all cases: in vivo
[1] = system: ryegrass, Italian (Italian ryegrass, Lolium multiflorum)
How it was run: (§1)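 Two application timings: at sowing into a soil/sand blend, and on 2–18 cm seedlings in peat-vermiculite potting mix. A non-phytotoxic, surfactant-containing solvent carried the compounds. Plants were compared with controls and rated visually on 0–100 after 13–15 d.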

[2] = system: barnyardgrass (Echinochloa crus-galli)
How it was run: as §1

[3] = system: waterhemp (common waterhemp, Amaranthus rudis)
How it was run: as §1

[4] = system: ragweed (common ragweed, Ambrosia elatior)
How it was run: as §1

[5] = system: pigweed (Amaranthus retroflexus)
How it was run: as §1

[6] = system: nutsedge, yellow (yellow nutsedge, Cyperus esculentus)
How it was run: as §1

[7] = system: johnsongrass (Sorghum halepense)
How it was run: as §1

[8] = system: velvetleaf (Abutilon theophrasti)
How it was run: as §1

[9] = system: oilseed rape (Brassica napus)
How it was run: as §1

[10] = system: galium (catchweed bedstraw, Galium aparine)
How it was run: as §1

[11] = system: lambsquarters (Chenopodium album)
How it was run: as §1

corn (Zea mays) = system: corn (Zea mays)
How it was run: as §1

[12] = system: crabgrass, large (large crabgrass, Digitaria sanguinalis)
How it was run: as §1

[13] = system: foxtail, giant (giant foxtail, Setaria faberii)
How it was run: as §1

[14] = system: morningglory (Ipomoea coccinea)
How it was run: as §1

[15] = system: blackgrass (Alopecurus myosuroides)
How it was run: as §1

[16] = Postemergence, 31 g ai/ha, 0 to 100 scale (0 no effect, 100 complete control)
[17] = Postemergence, 125 g ai/ha, scale 0 to 100, 0 is no effect, 100 is complete control
[18] = Postemergence, 250 g ai/ha, scale 0 to 100, 0 no effect, 100 complete control, 13 to 15 d
[19] = postemergence, 62 g ai/ha, scale 0 to 100, 0 no effect, 100 complete control

Cc1ccc2ccccc2c1-c1c(O)cnn(C)c1=O [Compound 56] was tested, and the “Ryegrass, Italian plant response rating” value [1, 16] was 40, the “Plant response rating, Ryegrass, Italian” value [1, 17] was 65 and the “Plant response rating, Ryegrass, Italian” value [1, 18] was 90. The “Ryegrass, Italian plant response rating” value [1, 19] was 60, the “Barnyardgrass plant response rating” value [2, 16] was 0 and the “Plant response rating, Barnyardgrass” value [2, 17] was 5. The “Plant response rating, Barnyardgrass” value [2, 18] was 10, the “Barnyardgrass plant response rating” value [2, 19] was 5 and the “Waterhemp plant response rating” value [3, 16] was 55. The “Plant response rating, Waterhemp” value [3, 17] was 95, the “Plant response rating, Waterhemp” value [3, 18] was 90 and the “Waterhemp plant response rating” value [3, 19] was 75. For the same compound, the “Ragweed plant response rating” value [4, 16] was 0, the “Plant response rating, Ragweed” value [4, 17] was 60 and the “Plant response rating, Ragweed” value [4, 18] was 60. For the same compound, the “Ragweed plant response rating” value [4, 19] was 0, the “Pigweed plant response rating” value [5, 16] was 80 and the “Plant response rating, Pigweed” value [5, 17] was 85. The “Plant response rating, Pigweed” value [5, 18] was 90, the “Pigweed plant response rating” value [5, 19] was 75 and the “Nutsedge, Yellow plant response rating” value [6, 16] was 0. For the same compound, the “Plant response rating, Nutsedge, Yellow” value [6, 17] was 50, the “Plant response rating, Nutsedge, Yellow” value [6, 18] was 60 and the “Nutsedge, Yellow plant response rating” value [6, 19] was 5. For the same compound, the “Johnsongrass plant response rating” value [7, 16] was 0, the “Plant response rating, Johnsongrass” value [7, 17] was 5 and the “Plant response rating, Johnsongrass” value [7, 18] was 10. For the same compound, the “Johnsongrass plant response rating” value [7, 19] was 0, the “Velvetleaf plant response rating” value [8, 16] was 0 and the “Plant response rating, Velvetleaf” value [8, 17] was 15. For the same compound, the “Plant response rating, Velvetleaf” value [8, 18] was 70, the “Velvetleaf plant response rating” value [8, 19] was 0 and the “Oilseed Rape plant response rating” value [9, 16] was 0. The “Plant response rating, Oilseed Rape” value [9, 17] was 0, the “Plant response rating, Oilseed Rape” value [9, 18] was 0 and the “Oilseed Rape plant response rating” value [9, 19] was 0. The “Galium plant response rating” value [10, 16] was 80, the “Plant response rating, Galium” value [10, 17] was 90 and the “Plant response rating, Galium” value [10, 18] was 90. For the same compound, the “Galium plant response rating” value [10, 19] was 85, the “Lambsquarters plant response rating” value [11, 16] was 0 and the “Plant response rating, Lambsquarters” value [11, 17] was 85. For the same compound, the “Plant response rating, Lambsquarters” value [11, 18] was 85, the “Lambsquarters plant response rating” value [11, 19] was 50 and the “Corn plant response rating” value (corn (Zea mays); [16]) was 0. For the same compound, the “Plant response rating, Corn” value (corn (Zea mays); [17]) was 0, the “Plant response rating, Corn” value (corn (Zea mays); [18]) was 0 and the “Corn plant response rating” value (corn (Zea mays); [19]) was 0. The “Crabgrass, Large plant response rating” value [12, 16] was 0, the “Plant response rating, Crabgrass, Large” value [12, 17] was 5 and the “Plant response rating, Crabgrass, Large” value [12, 18] was 20. For the same compound, the “Crabgrass, Large plant response rating” value [12, 19] was 5, the “Foxtail, Giant plant response rating” value [13, 16] was 0 and the “Plant response rating, Foxtail, Giant” value [13, 17] was 0. For the same compound, the “Plant response rating, Foxtail, Giant” value [13, 18] was 50, the “Foxtail, Giant plant response rating” value [13, 19] was 0 and the “Morningglory plant response rating” value [14, 16] was 35. The “Plant response rating, Morningglory” value [14, 17] was 50, the “Plant response rating, Morningglory” value [14, 18] was 50 and the “Morningglory plant response rating” value [14, 19] was 50. For the same compound, the “Blackgrass plant response rating” value [15, 16] was 0, the “Plant response rating, Blackgrass” value [15, 17] was 5 and the “Plant response rating, Blackgrass” value [15, 18] was 40. The “Blackgrass plant response rating” value [15, 19] was 5.
